Test [1] addresses T1, Leucine aminopeptidase (Plasmodium falciparum 3D7, UniProt Q8IL11).
T1 sequence (Q8IL11 whole entry): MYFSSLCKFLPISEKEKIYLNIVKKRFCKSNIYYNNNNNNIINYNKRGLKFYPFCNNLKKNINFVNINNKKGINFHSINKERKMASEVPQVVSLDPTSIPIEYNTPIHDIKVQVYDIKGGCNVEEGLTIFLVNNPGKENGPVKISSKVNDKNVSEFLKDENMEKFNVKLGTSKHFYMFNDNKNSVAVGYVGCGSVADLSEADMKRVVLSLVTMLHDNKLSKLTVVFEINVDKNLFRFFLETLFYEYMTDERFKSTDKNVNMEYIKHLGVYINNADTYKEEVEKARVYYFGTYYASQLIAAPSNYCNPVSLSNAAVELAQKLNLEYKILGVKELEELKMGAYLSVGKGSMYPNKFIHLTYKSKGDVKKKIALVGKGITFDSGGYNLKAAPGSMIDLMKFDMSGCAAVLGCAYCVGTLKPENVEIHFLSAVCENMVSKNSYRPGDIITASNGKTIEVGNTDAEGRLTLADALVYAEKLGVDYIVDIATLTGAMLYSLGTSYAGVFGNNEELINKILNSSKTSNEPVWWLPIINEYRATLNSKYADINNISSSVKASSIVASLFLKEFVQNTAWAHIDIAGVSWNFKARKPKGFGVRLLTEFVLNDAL
Kind of test: P. falciparum M17LAP inhibitors, primary screen, biochemical, fluorogenic H-Leu-NHMec substrate, 1536-well (AID 1619). Type of test: functional.

The target of test [2] is Aspartyl aminopeptidase (Plasmodium falciparum 3D7, UniProt Q8I2J3). The test is described as follows: Counterscreen for inhibitors of M1 and M17 aminopeptidases: QFRET-based biochemical high throughput dose response assay for inhibitors of the Plasmodium falciparum M18 Aspartyl Aminopeptidase (PFM18AAP). [Related PubChem assays: 1619 (Screening assay (M17LAP inhibitors).), 1445 (Screening assay (M1AAP inhibitors).)].

Test [3] deals with Procathepsin L (Homo sapiens, UniProt P07711). The test is described as follows: cathepsin L inhibitors, dose response, counter-screen for M1/M17 aminopeptidase inhibitor project, biochemical, QFRET, 1536-well (AID 2214). In general terms: The purpose of a counterscreen is to sort out artefacts and off-target activity.
The target of test [4] is T2, Long-chain-fatty-acid--AMP ligase FadD28 (Mycobacterium tuberculosis, UniProt P9WQ59).
T2 sequence (P9WQ59 whole entry): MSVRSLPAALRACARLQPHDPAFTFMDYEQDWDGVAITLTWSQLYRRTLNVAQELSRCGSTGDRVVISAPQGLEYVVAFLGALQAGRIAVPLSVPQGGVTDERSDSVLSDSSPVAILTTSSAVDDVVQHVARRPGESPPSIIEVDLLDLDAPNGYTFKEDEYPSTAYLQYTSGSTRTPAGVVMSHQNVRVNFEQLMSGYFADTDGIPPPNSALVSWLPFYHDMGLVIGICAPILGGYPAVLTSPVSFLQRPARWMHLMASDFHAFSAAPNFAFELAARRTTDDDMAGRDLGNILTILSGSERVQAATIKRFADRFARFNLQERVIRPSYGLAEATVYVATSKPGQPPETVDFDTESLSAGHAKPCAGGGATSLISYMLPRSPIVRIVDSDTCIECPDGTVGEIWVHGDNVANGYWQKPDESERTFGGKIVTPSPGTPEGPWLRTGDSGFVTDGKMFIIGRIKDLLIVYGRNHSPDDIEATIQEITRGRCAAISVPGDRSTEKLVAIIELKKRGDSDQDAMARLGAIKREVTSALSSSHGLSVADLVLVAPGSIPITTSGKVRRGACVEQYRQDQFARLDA
The test is described as follows: Fluorescence polarization aasay to screen for inhibitors that compete for the binding of FadD28 to a bisubstrate Measured in Biochemical System Using Plate Reader - 2147-01_Inhibitor_Dose_CherryPick_Activity. It is filed as functional, Mycobacterium tuberculosis H37Rv. For orientation: In fluorescence polarisation assays a small probe gives low polarisation when free and higher when bound to something large.

Test [5] has as its target T3, Zinc finger protein mex-5 (Caenorhabditis elegans, UniProt Q9XUB2).
T3 sequence (Q9XUB2 whole entry): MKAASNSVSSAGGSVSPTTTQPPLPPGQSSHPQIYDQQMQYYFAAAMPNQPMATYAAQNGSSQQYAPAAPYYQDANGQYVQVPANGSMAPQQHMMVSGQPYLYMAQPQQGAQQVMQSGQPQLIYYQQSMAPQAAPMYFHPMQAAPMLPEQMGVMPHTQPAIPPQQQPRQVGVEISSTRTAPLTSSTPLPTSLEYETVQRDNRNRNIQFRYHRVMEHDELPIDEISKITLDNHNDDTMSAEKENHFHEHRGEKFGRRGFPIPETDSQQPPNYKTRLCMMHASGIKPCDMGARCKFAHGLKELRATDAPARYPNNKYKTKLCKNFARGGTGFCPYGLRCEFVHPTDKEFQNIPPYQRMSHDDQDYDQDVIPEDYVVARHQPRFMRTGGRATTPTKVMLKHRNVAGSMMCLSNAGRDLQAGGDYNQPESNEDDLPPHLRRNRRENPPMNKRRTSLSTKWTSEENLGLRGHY
Kind of test: MEX-5/TCR-2 RNA interaction inhibitors, dose response, biochemical, C. elegans, fluorescence polarization (AID 1960).

For test [6], the target named is Estrogen receptor (Homo sapiens, UniProt P03372).
Test [7] addresses NADPH oxidase 1 (Homo sapiens, UniProt Q9Y5S8). It is filed as functional, cell-based.
Test [8] is described as follows: NIH-3T3 fibroblast cytotoxicity, dose response, cytotoxicity control, cell-based, fluorescence, Alamar Blue, secondary assay (AID 2327).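 Also: NIH-3T3 mouse fibroblasts cultured with fluconazole at 8 µg/mL.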 It is filed as functional. (In general: Resazurin is reduced to fluorescent resorufin, in cell work by metabolically active cells.)
For test [9], the target named is T4, Neuropeptide Y receptor type 2 (Homo sapiens, UniProt P49146).
T4 sequence (P49146 whole entry): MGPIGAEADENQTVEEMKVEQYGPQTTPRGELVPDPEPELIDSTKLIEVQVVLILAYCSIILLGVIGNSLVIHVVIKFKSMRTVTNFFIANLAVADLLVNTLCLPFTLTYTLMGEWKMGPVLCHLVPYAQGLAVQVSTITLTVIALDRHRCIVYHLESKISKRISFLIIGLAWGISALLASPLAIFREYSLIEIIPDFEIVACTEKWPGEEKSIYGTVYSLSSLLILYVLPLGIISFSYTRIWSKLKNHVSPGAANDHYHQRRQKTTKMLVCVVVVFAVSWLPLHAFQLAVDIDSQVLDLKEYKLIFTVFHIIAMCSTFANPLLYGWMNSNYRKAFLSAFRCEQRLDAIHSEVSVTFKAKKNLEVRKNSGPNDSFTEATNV
The test is described as follows: NPY-Y2 antagonist potency, selectivity check, dose response, counter-screen for NPY-Y1 antagonist project, cell-based (AID 1278). Type of test: functional.

The target of test [10] is T5, Neuropeptide Y receptor type 1 (Homo sapiens, UniProt P25929).
T5 sequence (P25929 whole entry): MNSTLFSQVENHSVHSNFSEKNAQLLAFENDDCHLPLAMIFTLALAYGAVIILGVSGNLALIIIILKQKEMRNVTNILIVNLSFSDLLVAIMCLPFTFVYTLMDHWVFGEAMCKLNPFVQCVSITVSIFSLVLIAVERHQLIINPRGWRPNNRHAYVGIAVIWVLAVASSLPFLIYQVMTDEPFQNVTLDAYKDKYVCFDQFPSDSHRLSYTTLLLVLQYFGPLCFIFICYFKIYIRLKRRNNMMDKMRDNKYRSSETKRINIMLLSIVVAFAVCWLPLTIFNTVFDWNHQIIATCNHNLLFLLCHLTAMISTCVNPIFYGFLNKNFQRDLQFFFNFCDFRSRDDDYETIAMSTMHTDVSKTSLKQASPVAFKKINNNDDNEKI
The test is described as follows: NPY-Y1 receptor antagonist potency, dose response, cell-based (AID 1277). It is filed as functional.

Test [11] is described as follows: inhibitors of intracellular T. cruzi replication, confirmation, NIH3T3 host cells, beta-gal luminescence (AID 2044).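 Also: intracellular parasites grown in NIH/3T3 mouse fibroblasts as host cells; luminescent beta-galactosidase reporter signal from transgenic T. cruzi replicating inside host cells; inhibitors lower the luminescence signal.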 It is filed as functional, cell-based.
Test [12] in a line: cytotoxicity toward NIH3T3 fibroblasts, dose response, counter-screen, cell-based, ATP luminescence, mouse fibroblasts (AID 2010).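 Also: cells exposed to compound for about 90 hours before reading.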 Type of test: functional.
Test [13] can be described thus: cytotoxicity in HEK-293T cells, dose response, cytotoxicity control for BCR NF-kB inhibitor project, luminescence, B-cell screen hits (AID 489021).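 Also: HEK-293T cells carrying an NF-kB luciferase reporter; cells exposed to compound for about 14 hours before viability readout.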 It is filed as functional, cell-based.
In test [14] the test system is INS1. Kind of test: beta cell apoptosis inhibitors, cytokine rescue, dose response, luminescence, retest (AID 449756).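 Also: cell death triggered by IL-1 beta plus TNF-alpha plus IFN-gamma mixture; protective hits raise ATP signal compared with cytokine alone wells.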 Type of test: functional, cell-based. Particulars: Rattus norvegicus.
The target in test [15] is Protein Wnt-3a (Mus musculus, UniProt P27467). Kind of test: Wnt3a-driven reporter signaling inhibition, dose response, selectivity assay for Gli-SUFU antagonist project, Wnt-LIGHT cells, luminescence (AID 651570).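 Also: Wnt-LIGHT reporter cells stimulated with conditioned medium from Wnt3a-producing cells.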 It is filed as functional. Particulars: read-out: IC50_Mean.
In test [16] the target is T6, Galanin receptor type 3 (Homo sapiens, UniProt O60755).
T6 sequence (O60755 whole entry): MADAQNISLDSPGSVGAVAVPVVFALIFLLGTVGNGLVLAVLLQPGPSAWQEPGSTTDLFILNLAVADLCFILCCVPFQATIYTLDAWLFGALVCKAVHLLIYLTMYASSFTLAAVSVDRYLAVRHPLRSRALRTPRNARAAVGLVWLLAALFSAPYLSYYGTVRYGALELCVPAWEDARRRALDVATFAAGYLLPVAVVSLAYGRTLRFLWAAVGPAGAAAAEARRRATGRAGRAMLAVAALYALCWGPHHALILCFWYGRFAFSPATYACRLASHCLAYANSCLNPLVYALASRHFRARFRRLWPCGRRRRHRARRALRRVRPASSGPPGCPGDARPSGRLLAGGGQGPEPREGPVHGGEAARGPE
The test is described as follows: Fluorescence-based cell-based primary high throughput dose response assay to identify antagonists of the Galanin Receptor 3 (GalR3). Type of test: functional.

Test [17] can be described thus: cells. It is filed as functional, cell-based. Particulars: HEK-CNG.
The target of test [18] is Inward rectifier potassium channel 2 (Mus musculus, UniProt P35561). The test is described as follows: Manual electrophysiological patch clamp assay for SAR compounds that inhibit/block inward-rectifying potassium ion channel Kir2.1. [Related pubchem assays: 1843 (Summary assay for Kir2.1 inhibitor assays.), 1672 (Primary HTS of 305616 compounds where 2592 were identified as active.)]. Type of test: functional.

Test [19] addresses T7, Bcl-2-like protein 10 (Homo sapiens, UniProt Q9HD36).
T7 sequence (Q9HD36 whole entry): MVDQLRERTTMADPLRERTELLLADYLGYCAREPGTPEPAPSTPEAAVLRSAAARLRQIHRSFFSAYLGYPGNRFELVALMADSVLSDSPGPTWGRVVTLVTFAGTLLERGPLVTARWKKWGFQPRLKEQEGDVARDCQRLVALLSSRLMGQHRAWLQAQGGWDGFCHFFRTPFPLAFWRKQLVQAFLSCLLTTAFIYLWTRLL
The test is described as follows: displacers of TR3 peptide from Bcl-B, primary screen, selectivity assay for Bfl-1 inhibitor project, biochemical, fluorescence polarization, FITC-TR3 peptide (AID 748).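 Also: fluorescence polarization from a fluorescein-labelled TR3 peptide binding purified Bcl-B.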

Test [20] has as its target T8, Estrogen receptor beta (Homo sapiens, UniProt Q92731).
Test [21] has as its target T8, Estrogen receptor beta. The test is described as follows: ERβ–SRC-3 coactivator interaction inhibitors, confirmation, orthogonal assay, biochemical, ELISA, streptavidin-HRP readout (AID 1060).

The source made the active and inactive calls.

T8 sequence (Q92731 whole entry): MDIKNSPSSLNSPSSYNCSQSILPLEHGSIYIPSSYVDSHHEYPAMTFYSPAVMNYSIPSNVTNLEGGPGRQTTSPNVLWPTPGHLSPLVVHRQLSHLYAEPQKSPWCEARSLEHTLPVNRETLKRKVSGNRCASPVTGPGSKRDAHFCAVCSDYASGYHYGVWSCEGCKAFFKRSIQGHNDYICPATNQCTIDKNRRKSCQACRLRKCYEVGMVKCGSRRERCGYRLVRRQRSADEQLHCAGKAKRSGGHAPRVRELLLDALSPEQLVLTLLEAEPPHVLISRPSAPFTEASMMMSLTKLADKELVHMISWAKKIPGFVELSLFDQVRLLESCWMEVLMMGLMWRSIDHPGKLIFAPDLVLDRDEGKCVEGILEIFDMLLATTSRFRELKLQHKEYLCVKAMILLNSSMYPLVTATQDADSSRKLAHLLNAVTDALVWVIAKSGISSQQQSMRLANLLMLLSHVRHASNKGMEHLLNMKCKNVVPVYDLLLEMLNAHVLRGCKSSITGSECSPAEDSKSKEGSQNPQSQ
Protein Wnt-3a, sequence (P27467 whole entry): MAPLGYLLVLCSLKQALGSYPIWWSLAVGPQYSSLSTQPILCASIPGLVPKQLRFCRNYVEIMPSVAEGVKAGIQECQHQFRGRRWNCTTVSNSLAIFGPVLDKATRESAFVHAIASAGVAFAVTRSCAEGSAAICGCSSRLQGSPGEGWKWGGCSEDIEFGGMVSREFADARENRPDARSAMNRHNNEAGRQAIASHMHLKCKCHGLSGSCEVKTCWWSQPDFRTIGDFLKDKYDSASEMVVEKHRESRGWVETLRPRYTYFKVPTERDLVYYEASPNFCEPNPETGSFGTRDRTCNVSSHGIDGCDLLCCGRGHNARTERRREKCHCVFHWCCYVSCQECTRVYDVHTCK
Procathepsin L, sequence (P07711 whole entry): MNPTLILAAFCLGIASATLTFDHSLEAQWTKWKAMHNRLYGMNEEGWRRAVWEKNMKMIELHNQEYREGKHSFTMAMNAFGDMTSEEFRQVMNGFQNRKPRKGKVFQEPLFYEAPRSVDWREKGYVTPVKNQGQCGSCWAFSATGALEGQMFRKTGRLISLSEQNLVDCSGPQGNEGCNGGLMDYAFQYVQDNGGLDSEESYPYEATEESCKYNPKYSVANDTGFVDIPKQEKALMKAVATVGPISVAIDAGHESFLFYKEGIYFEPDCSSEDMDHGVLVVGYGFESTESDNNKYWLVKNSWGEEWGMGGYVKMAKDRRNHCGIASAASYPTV
Inward rectifier potassium channel 2, sequence (P35561 whole entry): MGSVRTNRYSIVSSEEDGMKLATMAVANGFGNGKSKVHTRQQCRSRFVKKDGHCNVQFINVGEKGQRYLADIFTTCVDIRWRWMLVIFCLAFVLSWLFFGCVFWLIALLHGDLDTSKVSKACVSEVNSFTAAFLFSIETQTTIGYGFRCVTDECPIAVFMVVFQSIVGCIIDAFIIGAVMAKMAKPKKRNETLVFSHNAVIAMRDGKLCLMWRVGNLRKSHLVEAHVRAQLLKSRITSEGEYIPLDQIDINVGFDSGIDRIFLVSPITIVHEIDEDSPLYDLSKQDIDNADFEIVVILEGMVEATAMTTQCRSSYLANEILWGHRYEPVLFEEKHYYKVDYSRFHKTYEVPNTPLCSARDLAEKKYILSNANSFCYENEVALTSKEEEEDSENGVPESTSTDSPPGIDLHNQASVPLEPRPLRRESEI
Aspartyl aminopeptidase, sequence (Q8I2J3 whole entry): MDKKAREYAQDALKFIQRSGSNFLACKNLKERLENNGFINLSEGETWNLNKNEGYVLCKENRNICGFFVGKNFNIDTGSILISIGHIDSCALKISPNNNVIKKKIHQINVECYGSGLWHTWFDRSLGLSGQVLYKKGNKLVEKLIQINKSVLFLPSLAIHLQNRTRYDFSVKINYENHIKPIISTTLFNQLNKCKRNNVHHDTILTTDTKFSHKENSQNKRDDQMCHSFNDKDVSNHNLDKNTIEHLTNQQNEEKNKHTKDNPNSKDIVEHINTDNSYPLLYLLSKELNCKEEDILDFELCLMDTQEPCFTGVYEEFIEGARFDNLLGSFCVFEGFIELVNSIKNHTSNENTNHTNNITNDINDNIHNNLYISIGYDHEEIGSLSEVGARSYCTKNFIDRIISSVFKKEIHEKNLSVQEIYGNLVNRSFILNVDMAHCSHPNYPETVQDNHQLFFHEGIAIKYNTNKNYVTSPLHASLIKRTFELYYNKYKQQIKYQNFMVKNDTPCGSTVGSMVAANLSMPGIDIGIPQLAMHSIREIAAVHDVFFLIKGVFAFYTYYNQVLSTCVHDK
Estrogen receptor, sequence (P03372 whole entry): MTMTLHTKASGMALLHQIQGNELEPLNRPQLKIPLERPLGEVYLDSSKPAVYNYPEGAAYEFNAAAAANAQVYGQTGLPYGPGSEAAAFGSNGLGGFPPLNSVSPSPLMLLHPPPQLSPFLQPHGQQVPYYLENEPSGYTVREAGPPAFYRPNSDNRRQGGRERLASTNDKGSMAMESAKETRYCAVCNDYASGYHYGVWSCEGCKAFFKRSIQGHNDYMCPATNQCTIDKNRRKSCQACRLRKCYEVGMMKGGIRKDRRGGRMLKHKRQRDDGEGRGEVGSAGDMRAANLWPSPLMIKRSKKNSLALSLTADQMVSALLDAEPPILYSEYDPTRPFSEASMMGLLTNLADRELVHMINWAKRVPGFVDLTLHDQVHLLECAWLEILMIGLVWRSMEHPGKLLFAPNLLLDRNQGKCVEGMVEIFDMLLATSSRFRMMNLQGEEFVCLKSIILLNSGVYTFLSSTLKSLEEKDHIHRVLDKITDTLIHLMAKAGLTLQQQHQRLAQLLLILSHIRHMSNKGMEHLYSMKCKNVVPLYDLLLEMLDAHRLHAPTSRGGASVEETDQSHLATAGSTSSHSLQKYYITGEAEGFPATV
NADPH oxidase 1, sequence (Q9Y5S8 whole entry): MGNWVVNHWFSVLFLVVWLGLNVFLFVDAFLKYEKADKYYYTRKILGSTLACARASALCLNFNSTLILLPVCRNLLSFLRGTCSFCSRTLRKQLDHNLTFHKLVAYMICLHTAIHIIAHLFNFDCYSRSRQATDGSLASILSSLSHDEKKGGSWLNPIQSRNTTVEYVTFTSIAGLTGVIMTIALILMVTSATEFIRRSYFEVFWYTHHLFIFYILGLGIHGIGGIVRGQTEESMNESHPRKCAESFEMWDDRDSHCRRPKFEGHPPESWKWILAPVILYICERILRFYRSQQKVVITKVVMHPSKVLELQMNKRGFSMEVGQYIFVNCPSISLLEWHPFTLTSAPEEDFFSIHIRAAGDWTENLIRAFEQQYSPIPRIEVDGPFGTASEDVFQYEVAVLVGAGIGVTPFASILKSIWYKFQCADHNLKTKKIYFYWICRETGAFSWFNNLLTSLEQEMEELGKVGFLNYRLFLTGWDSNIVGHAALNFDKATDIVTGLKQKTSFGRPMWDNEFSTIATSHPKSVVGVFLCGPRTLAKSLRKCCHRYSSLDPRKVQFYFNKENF

Regarding `CCOc1ccc(NC(=O)C2C(C(=O)O)C3(Cl)C(Cl)=C(Cl)C2(Cl)C3(Cl)Cl)cc1` (stereo unspecified), the figures for the IC50 in test [1], in [2] and in test [3] were < 1 µM (active), > 73.5 µM (not active) and > 59.6 µM (not active), respectively. The AC50 – broadly, the concentration giving half of the maximal activity seen – in test [4] is 11.5 µM (active).
Turning to `Cc1cc(/C=C2/C(=O)NC(=O)N(c3ccccc3)C2=O)c(C)n1-c1ccc(F)cc1`, the EC50 (as a rule, the concentration at which the effect is half-maximal) in [5] was 77.3 µM (active). In test [6], the IC50 was > 50 µM (not active).
Turning to `CC(O)c1ccc2c(c1)Nc1ccccc1S2` (stereo unspecified), in test [7], the IC50 was 0.363 µM (active).
For `COc1ccc(-[n+]2c(-c3ccc(Cl)cc3)cn3c2CCc2ccccc2-3)cc1`, the EC50 was > 150 µM (inactive) in test [8], 0.24 µM (active) in test [11], > 60 µM (not active) in [12] and > 29.9 µM (inactive) in [17]. The IC50 is 10.3 µM (not active) in test [9]; 7.36 µM (active) in test [10]; > 80 µM (inactive) in [13]; 25.6 µM (inactive) in [15]; 5.02 µM (active) in test [16]. The concentration at half-maximal activity (AC50) in test [14] is 2.08 µM (active).
As to `COc1ccc(CNCc2ccc(OC(F)(F)F)cc2)cc1`, the IC50 in test [18] was 1.64 µM (active).
With `O=C(COC(=O)c1cccs1)NCc1ccco1`, the IC50 in test [19] was 85.1 µM (inactive); in test [20] it was > 50 µM (not active); in [21], 8.95 µM (not active).

These data come from ChEMBL document CHEMBL1201862, “PubChem BioAssay data set” (2004).
